Biological target: T1, N-type Ca2+ channels in IMR-32 cells (Homo sapiens, UniProt Q00975)
T1 construct: host or cells: IMR-32 cells, differentiated with dibutyryl cAMP and bromodeoxyuridine
Test: Inhibition of N-type calcium flux in IMR-32 cells (Indo-1 fluorescence, nitrendipine present)
Type: cell-based
Conditions: for inhibition at 1 µM / inhibition at 10 µM: IMR-32; for IC50: IMR-32 cells, 5 μM nitrendipine, K+ depolarization
Outline: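 With L-type flux blocked by 5 μM nitrendipine, N-type Ca2+ entry was read as the Indo-1 emission ratio (400/490 nm, excitation 350 nm) at 30° C after KCl depolarization.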

T1 sequence (Q00975 whole entry): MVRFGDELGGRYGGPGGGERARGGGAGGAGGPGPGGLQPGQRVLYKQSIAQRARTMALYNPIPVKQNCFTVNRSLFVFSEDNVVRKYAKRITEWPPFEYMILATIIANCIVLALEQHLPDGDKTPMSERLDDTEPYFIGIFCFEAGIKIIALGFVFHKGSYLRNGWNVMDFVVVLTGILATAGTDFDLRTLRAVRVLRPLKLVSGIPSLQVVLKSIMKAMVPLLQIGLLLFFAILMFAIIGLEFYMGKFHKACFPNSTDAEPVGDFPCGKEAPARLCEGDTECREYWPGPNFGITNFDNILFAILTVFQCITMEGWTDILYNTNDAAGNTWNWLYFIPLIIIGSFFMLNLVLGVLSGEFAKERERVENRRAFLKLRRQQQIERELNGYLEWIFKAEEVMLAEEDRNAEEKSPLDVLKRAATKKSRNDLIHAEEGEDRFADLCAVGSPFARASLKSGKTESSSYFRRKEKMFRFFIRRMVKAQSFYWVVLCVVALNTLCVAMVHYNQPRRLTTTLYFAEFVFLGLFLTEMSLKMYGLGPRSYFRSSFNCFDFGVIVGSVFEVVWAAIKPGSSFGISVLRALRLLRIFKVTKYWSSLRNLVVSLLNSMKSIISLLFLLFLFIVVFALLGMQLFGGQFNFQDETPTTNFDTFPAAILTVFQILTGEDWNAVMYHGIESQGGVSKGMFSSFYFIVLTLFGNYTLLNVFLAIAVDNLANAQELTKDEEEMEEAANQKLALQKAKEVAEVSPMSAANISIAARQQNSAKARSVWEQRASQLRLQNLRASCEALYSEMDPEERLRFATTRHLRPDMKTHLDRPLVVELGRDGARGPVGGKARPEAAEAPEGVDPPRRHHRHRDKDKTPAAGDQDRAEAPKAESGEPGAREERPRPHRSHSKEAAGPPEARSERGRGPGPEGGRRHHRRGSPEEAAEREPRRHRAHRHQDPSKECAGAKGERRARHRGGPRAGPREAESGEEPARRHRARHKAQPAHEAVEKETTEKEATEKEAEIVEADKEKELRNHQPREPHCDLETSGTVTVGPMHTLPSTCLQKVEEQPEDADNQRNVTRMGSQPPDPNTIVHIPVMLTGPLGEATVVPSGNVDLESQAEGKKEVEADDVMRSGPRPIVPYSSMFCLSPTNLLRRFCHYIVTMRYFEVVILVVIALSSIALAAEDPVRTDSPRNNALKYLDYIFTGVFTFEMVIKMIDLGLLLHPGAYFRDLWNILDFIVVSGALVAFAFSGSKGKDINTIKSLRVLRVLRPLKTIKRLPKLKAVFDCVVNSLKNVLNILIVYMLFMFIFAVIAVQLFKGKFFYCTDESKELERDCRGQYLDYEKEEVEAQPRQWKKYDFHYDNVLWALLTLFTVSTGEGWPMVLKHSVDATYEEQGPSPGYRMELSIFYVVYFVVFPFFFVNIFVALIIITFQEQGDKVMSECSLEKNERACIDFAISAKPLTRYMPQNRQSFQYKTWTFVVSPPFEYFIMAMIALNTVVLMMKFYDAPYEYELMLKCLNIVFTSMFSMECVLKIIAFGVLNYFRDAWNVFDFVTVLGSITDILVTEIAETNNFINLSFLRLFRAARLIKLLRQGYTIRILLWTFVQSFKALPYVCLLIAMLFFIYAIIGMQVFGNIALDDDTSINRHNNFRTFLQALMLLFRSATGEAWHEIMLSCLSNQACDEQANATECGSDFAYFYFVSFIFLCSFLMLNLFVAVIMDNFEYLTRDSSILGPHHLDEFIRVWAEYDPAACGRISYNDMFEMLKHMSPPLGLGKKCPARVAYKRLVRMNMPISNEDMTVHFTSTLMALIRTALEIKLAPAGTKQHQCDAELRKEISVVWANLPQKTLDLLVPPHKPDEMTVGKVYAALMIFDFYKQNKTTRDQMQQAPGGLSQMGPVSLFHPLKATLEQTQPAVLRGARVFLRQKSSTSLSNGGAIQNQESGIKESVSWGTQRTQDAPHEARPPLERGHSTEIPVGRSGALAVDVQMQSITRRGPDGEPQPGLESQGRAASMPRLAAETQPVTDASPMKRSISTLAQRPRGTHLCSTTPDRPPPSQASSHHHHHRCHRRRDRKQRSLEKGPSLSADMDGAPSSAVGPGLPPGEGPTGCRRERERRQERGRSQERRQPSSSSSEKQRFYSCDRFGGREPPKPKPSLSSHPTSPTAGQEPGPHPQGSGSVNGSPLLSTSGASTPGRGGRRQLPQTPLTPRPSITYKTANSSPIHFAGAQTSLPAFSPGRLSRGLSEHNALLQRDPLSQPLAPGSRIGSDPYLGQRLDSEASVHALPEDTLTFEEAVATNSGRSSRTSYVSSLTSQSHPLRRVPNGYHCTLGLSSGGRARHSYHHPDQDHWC
T1 sequence (P54289 25-956 partner limits assumed): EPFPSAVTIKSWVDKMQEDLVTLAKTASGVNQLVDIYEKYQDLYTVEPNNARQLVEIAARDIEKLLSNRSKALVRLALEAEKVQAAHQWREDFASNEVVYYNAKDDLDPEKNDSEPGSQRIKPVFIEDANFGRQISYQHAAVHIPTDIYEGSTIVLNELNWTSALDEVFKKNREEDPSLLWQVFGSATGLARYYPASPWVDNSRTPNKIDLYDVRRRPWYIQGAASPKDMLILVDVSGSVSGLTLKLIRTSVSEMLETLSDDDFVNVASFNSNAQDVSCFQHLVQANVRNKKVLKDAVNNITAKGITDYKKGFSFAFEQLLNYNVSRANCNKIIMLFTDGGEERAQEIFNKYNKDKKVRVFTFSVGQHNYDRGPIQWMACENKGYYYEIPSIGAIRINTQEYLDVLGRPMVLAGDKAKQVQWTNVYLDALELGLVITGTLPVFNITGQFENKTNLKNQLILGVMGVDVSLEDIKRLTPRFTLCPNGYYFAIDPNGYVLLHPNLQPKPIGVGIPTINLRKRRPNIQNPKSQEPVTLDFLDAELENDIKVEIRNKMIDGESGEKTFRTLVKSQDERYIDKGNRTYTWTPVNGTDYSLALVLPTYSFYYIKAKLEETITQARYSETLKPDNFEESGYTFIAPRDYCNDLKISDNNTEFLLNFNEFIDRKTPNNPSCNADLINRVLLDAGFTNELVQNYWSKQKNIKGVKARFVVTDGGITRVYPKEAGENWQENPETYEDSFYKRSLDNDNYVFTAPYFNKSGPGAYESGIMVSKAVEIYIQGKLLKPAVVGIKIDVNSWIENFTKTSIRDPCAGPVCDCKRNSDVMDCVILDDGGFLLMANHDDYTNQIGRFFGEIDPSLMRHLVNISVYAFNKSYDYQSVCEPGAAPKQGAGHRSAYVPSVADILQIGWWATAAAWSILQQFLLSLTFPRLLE
T1 sequence (P54289 957-1103 partner limits assumed): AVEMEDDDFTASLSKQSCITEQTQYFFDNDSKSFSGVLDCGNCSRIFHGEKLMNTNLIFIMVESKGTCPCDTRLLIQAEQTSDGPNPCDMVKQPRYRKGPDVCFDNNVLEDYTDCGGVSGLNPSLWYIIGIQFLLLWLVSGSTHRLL
T1 sequence (P54284 whole entry partner): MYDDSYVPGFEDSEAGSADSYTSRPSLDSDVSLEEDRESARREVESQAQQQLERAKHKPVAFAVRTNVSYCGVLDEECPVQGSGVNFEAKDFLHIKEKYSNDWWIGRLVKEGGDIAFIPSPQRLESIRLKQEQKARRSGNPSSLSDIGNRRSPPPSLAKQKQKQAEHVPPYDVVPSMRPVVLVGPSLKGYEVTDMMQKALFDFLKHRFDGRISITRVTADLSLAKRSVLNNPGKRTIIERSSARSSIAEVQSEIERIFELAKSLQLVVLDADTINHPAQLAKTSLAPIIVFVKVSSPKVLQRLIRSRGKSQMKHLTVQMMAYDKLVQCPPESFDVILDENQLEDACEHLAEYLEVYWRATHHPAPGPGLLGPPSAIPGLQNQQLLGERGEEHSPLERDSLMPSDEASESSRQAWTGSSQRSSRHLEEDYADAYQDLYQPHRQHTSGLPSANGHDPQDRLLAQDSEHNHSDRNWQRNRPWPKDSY

SMILES	inhibition at 1 µM [%]	inhibition at 10 µM [%]	IC50 [µM]	Inhibition of Calcium Flux in IMR-32 Cells % Inhibition at 1 μM [%]	Inhibition of Calcium Flux in IMR-32 Cells % Inhibition at 10 μM [%]
CC(C)C[C@H](NC(=O)N1CCCCCC1)C(=O)N[C@@H](Cc1ccc(OCc2ccccc2)cc1)C(=O)N1CCN(CCO)CC1 [Example 202, [S-(R*,R*)]-Azepane-1-carboxylic acid (1-{1-(4-benzyloxy-benzyl)-2-[4-(2-hydroxy-ethyl)-piperazin-1-yl]-2-oxo-ethylcarbamoyl}-3-methyl-butyl)-amide]	25	79	2.8		
CC(C)C[C@H](NC(=O)N1CCCCCC1)C(=O)N[C@@H](Cc1ccc(OCc2ccccc2)cc1)C(=O)NC1CC(C)(C)NC(C)(C)C1 [Example 203, [S-(R*,R*)]-Azepane-1-carboxylic acid {1-[2-(4-benzyloxy-phenyl)-1-(2,2,6,6-tetramethyl-piperidin-4-ylcarbamoyl)-ethylcarbamoyl]-3-methyl-butyl}-amide]	15	70	4.7		
CC(=O)N1CCN(C(=O)[C@H](Cc2ccc(OCc3ccccc3)cc2)NC(=O)[C@H](CC(C)C)NC(=O)N2CCCCCC2)CC1 [Example 204, [S-(R*,R*)]-Azepane-1-carboxylic acid {1-[2-(4-acetyl-piperazin-1-yl)-1-(4-benzyloxy-benzyl)-2-oxo-ethylcarbamoyl]-3-methyl-butyl}-amide]	13	66	5.5		
CC(C)C[C@H](NC(=O)N1CCCCCC1)C(=O)N[C@@H](Cc1ccc(OCc2ccccc2)cc1)C(=O)NCC1CCCCC1 [Example 205, [S-(R*,R*)]-Azepane-1-carboxylic acid {1-[2-(4-benzyloxy-phenyl)-1-(cyclohexylmethyl-carbamoyl)-ethylcarbamoyl]-3-methyl-butyl}-amide]	36	72	2.4		
CC(C)C[C@H](NC(=O)N1CCCCCC1)C(=O)N[C@@H](Cc1ccc(OCc2ccccc2)cc1)C(=O)NCC1CC1 [Example 206, [S-(R*,R*)]-Azepane-1-carboxylic acid {1-[2-(4-benzyloxy-phenyl)-1-(cyclopropylmethyl-carbamoyl)-ethylcarbamoyl]-3-methyl-butyl}-amide]	37	87	1.7		
CC(C)C[C@H](NC(=O)N1CCCCCC1)C(=O)N[C@@H](Cc1ccc(OCc2ccccc2)cc1)C(=O)Nc1nccs1 [Example 207, [S-(R*,R*)]-Azepane-1-carboxylic acid {1-[2-(4-benzyloxy-phenyl)-1-(thiazol-2-ylcarbamoyl)-ethylcarbamoyl]-3-methyl-butyl}-amide]	21	59	6.2		
CC(C)C[C@H](NC(=O)N1CCCCCC1)C(=O)N[C@@H](Cc1ccc(OCc2ccccc2)cc1)C(=O)NC1CCCCCC1 [Example 208, [S-(R*,R*)]-Azepane-1-carboxylic acid {1-[2-(4-benzyloxy-phenyl)-1-cycloheptylcarbamoyl-ethylcarbamoyl]-3-methyl-butyl}-amide]	38	81	1.8		
CC(C)C[C@H](NC(=O)N1CCCCCC1)C(=O)N[C@@H](Cc1ccc(OCc2ccccc2)cc1)C(=O)NC1CC1 [Example 209, [S-(R*,R*)]-Azepane-1-carboxylic acid {1-[2-(4-benzyloxy-phenyl)-1-cyclopropylcarbamoyl-ethylcarbamoyl]-3-methyl-butyl}-amide]	27	82	2.5		
COc1ccc(NC(=O)[C@H](Cc2ccc(OCc3ccccc3)cc2)NC(=O)[C@H](CC(C)C)NC(=O)N2CCCCCC2)cc1 [Example 210, [S-(R*,R*)]-Azepane-1-carboxylic acid {1-[2-(4-benzyloxy-phenyl)-1-(4-methoxy-phenylcarbamoyl)-ethylcarbamoyl]-3-methyl-butyl}-amide]	39		1.5		
CC(C)C[C@H](NC(=O)N1CCCCCC1)C(=O)N[C@@H](Cc1ccc(OCc2ccccc2)cc1)C(=O)Nc1ccc(CCO)cc1 [Example 211, [S-(R*,R*)]-Azepane-1-carboxylic acid (1-{2-(4-benzyloxy-phenyl)-1-[4-(2-hydroxy-ethyl)-phenylcarbamoyl]-ethylcarbamoyl}-3-methyl-butyl)-amide]	49	81	1.1		
CC(=O)c1ccc(NC(=O)[C@H](Cc2ccc(OCc3ccccc3)cc2)NC(=O)[C@H](CC(C)C)NC(=O)N2CCCCCC2)cc1 [Example 212, [S-(R*,R*)]-Azepane-1-carboxylic acid {1-[1-(4-acetyl-phenylcarbamoyl)-2-(4-benzyloxy-phenyl)-ethylcarbamoyl]-3-methyl-butyl}-amide]	34	66	1.9		

Other lines, results leading:

inhibition at 1 µM [%]	inhibition at 10 µM [%]	IC50 [µM]	Inhibition of Calcium Flux in IMR-32 Cells % Inhibition at 1 μM [%]	Inhibition of Calcium Flux in IMR-32 Cells % Inhibition at 10 μM [%]	SMILES
30	33	2.4			CC(C)C[C@H](NC(=O)N1CCCCCC1)C(=O)N[C@@H](Cc1ccc(OCc2ccccc2)cc1)C(=O)Nc1ccc(Oc2ccccc2)cc1 [Example 213, [S-(R*,R*)]-Azepane-1-carboxylic acid {1-[2-(4-benzyloxy-phenyl)-1-(4-phenoxy-phenylcarbamoyl)-ethylcarbamoyl]-3-methyl-butyl}-amide]
42	51	1.4			CC(C)C[C@H](NC(=O)N1CCCCCC1)C(=O)N[C@@H](Cc1ccc(OCc2ccccc2)cc1)C(=O)Nc1cccc(C(F)(F)F)c1 [Example 214, [S-(R*,R*)]-Azepane-1-carboxylic acid {1-[2-(4-benzyloxy-phenyl)-1-(3-trifluoromethyl-phenylcarbamoyl)-ethylcarbamoyl]-3-methyl-butyl}-amide]
35	75	5			CC(C)C[C@H](NC(=O)N1CCCCCC1)C(=O)N[C@@H](Cc1ccc(OCc2ccccc2)cc1)C(=O)NCc1ccc(CN)cc1 [Example 217, [S-(R*,R*)]-Azepane-1-carboxylic acid {1-[1-(4-aminomethyl-benzylcarbamoyl)-2-(4-benzyloxy-phenyl)-ethylcarbamoyl]-3-methyl-butyl}-amide]
62	93				CC(C)CC(NC(=O)N1CCCCCC1)C(=O)NC(Cc1ccc(OCc2ccccc2)cc1)C(=O)N1CCCC1CNc1ccccc1 (stereo not drawn) [Example 218, Azepane-1-carboxylic acid {1-[1-(4-benzyloxy-benzyl)-2-oxo-2-(2-phenylaminomethyl-pyrrolidin-1-yl)-ethylcarbamoyl]-3-methyl-butyl}-amide]
6	23				CC(C)CC(NC(=O)N1CCCCCC1)C(=O)NC(Cc1ccc(OCc2ccccc2)cc1)C(=O)NCC(O)CN (stereo not drawn) [Example 219, Azepane-1-carboxylic acid {1-[1-(3-amino-2-hydroxy-propylcarbamoyl)-2-(4-benzyloxy-phenyl)-ethylcarbamoyl]-3-methyl-butyl}-amide]
			19	86	CC(C)CC(NC(=O)N1CCCCCC1)C(=O)NC(Cc1ccc(OCc2ccccc2)cc1)C(=O)NC(CO)C(O)c1ccccc1 (stereo not drawn) [Example 227, [S-(R*,R*)]-Azepane-1-carboxylic acid {1-[2-(4-benzyloxy-phenyl)-1-(2-hydroxy-1-hydroxymethyl-2-phenyl-ethylcarbamoyl)-ethylcarbamoyl]-3-methyl-butyl}-amide]
34	81				CC(C)CC(NC(=O)N1CCCCCC1)C(=O)NC(Cc1ccc(OCc2ccccc2)cc1)C(=O)NC(C)CN(C)C (stereo not drawn) [Example 230, Azepane-1-carboxylic acid {1-[2-(4-benzyloxy-phenyl)-1-(2-dimethylamino-1-methyl-ethylcarbamoyl)-ethylcarbamoyl]-3-methyl-butyl}-amide]
32	67				CC(C)CC(NC(=O)N1CCCCCC1)C(=O)NC(Cc1ccc(OCc2ccccc2)cc1)C(=O)N1CCCC(O)C1 (stereo not drawn) [Example 234, Azepane-1-carboxylic acid {1-[1-(4-benzyloxy-benzyl)-2-(3-hydroxy-piperidin-1-yl)-2-oxo-ethylcarbamoyl]-3-methyl-butyl}-amide]
22	23				CC(C)CC(NC(=O)N1CCCCCC1)C(=O)NC(Cc1ccc(OCc2ccccc2)cc1)C(=O)NC(C)CNCC(C)N (stereo not drawn) [Example 239, Azepane-1-carboxylic acid {1-[1-[2-(2-amino-propylamino)-1-methyl-ethylcarbamoyl]-2-(4-benzyloxy-phenyl)-ethylcarbamoyl]-3-methyl-butyl}-amide]
			23		CC(C)C[C@H](NC(=O)N1CCCCCC1)C(=O)N[C@@H](Cc1ccc(OCc2ccccc2)cc1)C(=O)NCC(C)NC(C)C (stereo partly drawn) [Example 242]
48	89				CCC(C)NC(=O)C(Cc1ccc(OCc2ccccc2)cc1)NC(=O)C(CC(C)C)NC(=O)N1CCCCCC1 (stereo not drawn) [Example 243, Azepane-1-carboxylic acid {1-[2-(4-benzyloxy-phenyl)-1-sec-butylcarbamoyl-ethylcarbamoyl]-3-methyl-butyl}-amide]
			24	73	CC(=O)N[C@H]1CCN(C(=O)[C@H](Cc2ccc(OCc3ccccc3)cc2)NC(=O)[C@H](CC(C)C)NC(=O)N2CCCCCC2)C1 [Example 244]
57	89				CCC(COC)NC(=O)C(Cc1ccc(OCc2ccccc2)cc1)NC(=O)C(CC(C)C)NC(=O)N1CCCCCC1 (stereo not drawn) [Example 245, Azepane-1-carboxylic acid {1-[2-(4-benzyloxy-phenyl)-1-(1-methoxymethyl-propylcarbamoyl)-ethylcarbamoyl]-3-methyl-butyl}-amide]
